Laboratory results from article PMC2574903 (Biochimica et biophysica acta, 2008).
Like-named read-outs stand apart in the source and are kept apart here.

Legend:
CES1 [1] = target: T1, CES1 (Homo sapiens, UniProt P23141); assay: Hydrolysis of 4-methylumbelliferyl oleate; format: biochemical
T1 sequence (P23141 18-567): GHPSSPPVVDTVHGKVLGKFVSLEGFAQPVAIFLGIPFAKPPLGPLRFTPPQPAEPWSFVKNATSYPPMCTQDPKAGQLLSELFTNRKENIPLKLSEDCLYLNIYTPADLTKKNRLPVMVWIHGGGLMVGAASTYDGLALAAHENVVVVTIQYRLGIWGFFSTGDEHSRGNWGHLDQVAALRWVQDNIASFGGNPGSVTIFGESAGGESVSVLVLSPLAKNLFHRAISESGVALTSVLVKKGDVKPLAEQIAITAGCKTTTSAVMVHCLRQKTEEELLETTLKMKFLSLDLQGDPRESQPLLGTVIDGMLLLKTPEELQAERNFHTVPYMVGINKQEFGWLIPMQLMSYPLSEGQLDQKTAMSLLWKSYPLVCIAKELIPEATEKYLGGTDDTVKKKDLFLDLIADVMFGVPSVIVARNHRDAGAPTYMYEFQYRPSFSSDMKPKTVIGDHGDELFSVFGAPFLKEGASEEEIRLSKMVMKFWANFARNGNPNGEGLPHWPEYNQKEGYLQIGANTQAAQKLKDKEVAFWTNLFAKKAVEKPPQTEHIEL

porcine pancreatic CEL = target: T2, porcine pancreatic CEL (Sus scrofa, UniProt A0A286ZKB1); assay: Hydrolysis of 4-MUBO by porcine bile-salt stimulated cholesterol esterase; format: biochemical; conditions: 4-MUBO substrate; no bile salts added; Supplementary Fig. 1
T2 sequence (A0A286ZKB1 1-682): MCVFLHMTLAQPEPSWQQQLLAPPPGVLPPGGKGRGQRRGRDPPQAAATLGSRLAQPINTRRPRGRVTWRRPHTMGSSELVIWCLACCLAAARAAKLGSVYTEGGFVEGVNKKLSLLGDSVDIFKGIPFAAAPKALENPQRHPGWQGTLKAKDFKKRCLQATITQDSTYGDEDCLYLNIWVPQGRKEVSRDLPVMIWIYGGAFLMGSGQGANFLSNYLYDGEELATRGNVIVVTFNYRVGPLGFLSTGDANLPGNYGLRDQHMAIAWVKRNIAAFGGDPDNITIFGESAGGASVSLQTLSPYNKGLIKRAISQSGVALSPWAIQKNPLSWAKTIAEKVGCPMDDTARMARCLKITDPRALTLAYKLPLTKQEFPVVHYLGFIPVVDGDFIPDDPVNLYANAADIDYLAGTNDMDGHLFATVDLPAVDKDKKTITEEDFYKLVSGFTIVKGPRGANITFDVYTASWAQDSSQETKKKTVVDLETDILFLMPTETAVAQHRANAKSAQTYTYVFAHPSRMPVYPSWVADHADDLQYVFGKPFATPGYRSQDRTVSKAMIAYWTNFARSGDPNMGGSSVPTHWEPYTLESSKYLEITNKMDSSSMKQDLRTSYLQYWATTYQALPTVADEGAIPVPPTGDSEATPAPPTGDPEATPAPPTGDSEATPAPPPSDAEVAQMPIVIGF

THP-1 macrophages = assay: Cholesteryl ester retention in cholesterol-loaded THP-1 macrophages; format: cell-based, human; conditions: for Total cellular cholesterol content of macrophages / Free cholesterol levels: 50 μM benzil or 10 μM paraoxon, 48-h efflux period; for Free cholesterol levels: vs vehicle
[2] = target: T3, carboxylesterase activity in THP-1 macrophages (Homo sapiens, UniProt P23141); format: cell-based
T3 sequence (P23141 18-567): T1 sequence (P23141 18-567)

[3] = system: intracellular carboxylesterase activity in U373MG cells; conditions: cited from earlier work
[4] = target: T4, carboxylesterase activity of human THP-1 cell lysates (CES1) (Homo sapiens, UniProt P23141); format: biochemical; conditions: para-nitrophenyl valerate
T4 sequence (P23141 18-567): T1 sequence (P23141 18-567)

[5] = target: T5, carboxylesterase activity (CES1) in intact THP-1 cells (Homo sapiens, UniProt P23141); assay: Carboxylesterase activity after 24-h treatment of intact THP-1 monocytes; format: cell-based; conditions: for Inhibition of carboxylesterase activity in intact THP-1 monocytes: 24 h treatment of intact cells, activity measured in lysates; for Relative effectiveness at inhibiting carboxylesterase activity in intact cells: 24 h treatment, comparison of the three oxons
T5 sequence (P23141 18-567): T1 sequence (P23141 18-567)

THP-1 cells = assay: Cell viability by Trypan Blue exclusion after oxon exposure; format: cell-based, human; conditions: 24 h, concentrations of oxon used, data not shown
[6] = cited from earlier work
[7] = system: cholesteryl ester hydrolase activity in human THP1 cell lysate; assay: Hydrolysis of cholesteryl [1-14C]oleate; format: biochemical; conditions: 10 μM paraoxon for 10 min before 75 μM cholesteryl [1-14C]oleate
[8] = system: lipolytic activity of THP-1 cell lysates; assay: Hydrolysis of 4-MUBO by THP-1 cell lysates; format: biochemical, human; conditions: paraoxon up to 10 μM; Supplementary Fig. 2
CES1 [9] = target: T1, CES1; format: binding
CES1 protein expression = assay: Western blot of CES1 protein in paraoxon-treated THP-1 cells; format: cell-based, human; conditions: 10 μM paraoxon 24 h

For `O=C(C(=O)c1ccccc1)c1ccccc1` [Benzil, diphenylethane-1,2-dione], the “Inhibition of lipase activity of CES1” value (CES1 [1]) was “can be inhibited”, the “Inhibition of CEL” value (porcine pancreatic CEL) was “does not inhibit” and the “Increase in intracellular cholesteryl ester levels” value (THP-1 macrophages; 50 μM benzil during 48-h cholesterol efflux period) was > 3 fold. The “Total cellular cholesterol content of macrophages” value (THP-1 macrophages) was “did not significantly change”, the Free cholesterol levels (THP-1 macrophages) was “similar” and the “Carboxylesterase activity in cell lysate from treated macrophages” value [2] was “not significantly inhibited”. For the same compound, the “Inhibition of intracellular carboxylesterase activity” value ([3]; U373MG cells transfected with plasmids containing mammalian CES cDNA) was “effective inhibitor”, the Cell permeability ([3]; U373MG cells) was “cell-permeable” and the Cytotoxicity ([3]; U373MG cells) was “non-cytotoxic”.

For `CCOP(=O)(OCC)Oc1nc(Cl)c(Cl)cc1Cl` [Chlorpyrifos oxon], the “Inhibition of carboxylesterase activity in cell lysates” value (shortened to “Inhibition … in cell lysates”) [4] was “inhibited carboxylesterase activity in cell lysates in a concentration-dependent manner”, the “Inhibition of carboxylesterase activity in intact THP-1 monocytes” value (“Inhibition … in intact THP-1 monocytes” below) [5] was “inhibited by each oxon in a dose-dependent manner” and the “Relative effectiveness at inhibiting carboxylesterase activity in intact cells” value [5] was “least effective”. For the same compound, the Overall cell viability (THP-1 cells) was “did not affect overall cell viability” and the “Lipophilicity rank among the three oxons” value [6] was “most lipophilic”.

For `COP(=O)(OC)Oc1ccc([N+](=O)[O-])cc1` [Methyl paraoxon], the “Inhibition … in cell lysates” value [4] was “inhibited carboxylesterase activity in cell lysates in a concentration-dependent manner”, the “Inhibition … in intact THP-1 monocytes” value [5] was “inhibited by each oxon in a dose-dependent manner” and the Overall cell viability (THP-1 cells) was “did not affect overall cell viability”. The “Lipophilicity rank among the three oxons” value [6] was “least lipophilic”.

In the case of `CCOP(=O)(OCC)Oc1ccc([N+](=O)[O-])cc1` [Paraoxon], the “Inhibition … in cell lysates” value [4] is reported as “inhibited carboxylesterase activity in cell lysates in a concentration-dependent manner”, the “Reduction of CEH activity of THP1 cell lysates” value [7] is reported as 23% and the “Inhibition of lipase activity of CES1” value (CES1 [1]; 4-MUBO substrate, Supplementary Fig. 1) is reported as “can be inhibited”. The “Inhibition of CEL” value (porcine pancreatic CEL) was “very sensitive”, the “Inhibition of lipolytic activity of THP-1 cell lysates toward 4-MUBO” value [8] was “no significant inhibiton of lipase activity” and the “Paraoxon concentrations that completely inhibited FP-biotin labeling of CES1” value (CES1 [9]; lysate 1 mg/ml pre-treated 15 min at 37°C, then 2 μM FP-biotin 1 h) was > 1 nM. For the same compound, the “Effect on FP-biotin labeling of CES1” value (CES1 [9]; pre-treatment with paraoxon at 0.01 nM) was “did not prevent labeling”, the “Inhibition … in intact THP-1 monocytes” value [5] was “inhibited by each oxon in a dose-dependent manner” and the “Relative effectiveness at inhibiting carboxylesterase activity in intact cells” value [5] was “most effective”. For the same compound, the “CES1 activity on native PAGE gels” value ([5]; intact cells, 10 μM paraoxon 24 h, α,β-naphthyl acetate stain) was “markedly inhibited”, the Overall cell viability (THP-1 cells) was “did not affect overall cell viability” and the “Amount of CES1 protein compared to control (vehicle) treated cells” value (CES1 protein expression) was “no difference”. For the same compound, the “Intracellular cholesteryl ester retention” value (THP-1 macrophages; 10 μM paraoxon during 48-h cholesterol efflux) was “significant increase”, the “Total cellular cholesterol content of macrophages” value (THP-1 macrophages) was “did not significantly change” and the Free cholesterol levels (THP-1 macrophages) was “modest but significant reduction”. For the same compound, the “Inhibition of carboxylesterase activity in cell lysate from treated macrophages” value ([2]; 10 μM paraoxon, compared to control cells, p≤0.05) was 81%.
